This is an account of results in PubChem BioAssay AID248 (DTP/NCI, 2004).

Molecules are shown by their SMILES. Inconclusive results and toxic doses are left out.

This assay relates to L1210 leukemia ip in BDF1 mice, survival T/C. The assay can be described thus: NCI In Vivo Anticancer Drug Screen. Data for tumor model L1210 Leukemia (intraperitoneal) in B6D2F1 (BDF1) mice. The conditions noted are these: endpoint: mean survival time, higher = longer survival. In outline:
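Value reflects the ratio of survival in compound-treated mice to survival in vehicle-treated controls, with both groups carrying the same transplanted tumor.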

Setting [1] is: dose: 100.0 mg/kg/injection, schedule: Q04DX003 (ip), vehicle: saline with Tween-80.
[2] abbreviates: dose: 200.0 mg/kg/injection, schedule: Q04DX003 (ip), vehicle: saline with Tween-80.
[3] abbreviates: dose: 400.0 mg/kg/injection, schedule: Q04DX003 (ip), vehicle: saline with Tween-80.
Setting [4] is: dose: 100.0 mg/kg/injection, schedule: Q01DX009 (ip), vehicle: saline.
The mark [5] stands for this setting: dose: 100.0 mg/kg/injection, schedule: Q04DX003 (ip), vehicle: saline.
Setting [6] is: dose: 200.0 mg/kg/injection, schedule: Q01DX009 (ip), vehicle: saline.
Where [7] appears, read: dose: 200.0 mg/kg/injection, schedule: Q04DX003 (ip), vehicle: saline.
Setting [8] is: dose: 400.0 mg/kg/injection, schedule: Q04DX003 (ip), vehicle: saline.
Setting [9] is: dose: 100.0 mg/kg/injection, schedule: Q01DX001 (ip), vehicle: saline.
Setting [10] is: dose: 200.0 mg/kg/injection, schedule: Q01DX001 (ip), vehicle: saline.
Setting [11] is: dose: 400.0 mg/kg/injection, schedule: Q01DX001 (ip), vehicle: saline.
Where [12] appears, read: dose: 100.0 mg/kg/injection, schedule: Q01DX001 (ip), vehicle: carboxymethylcellulose (CMC).
The mark [13] stands for this setting: dose: 200.0 mg/kg/injection, schedule: Q01DX001 (ip), vehicle: carboxymethylcellulose (CMC).
Where [14] appears, read: dose: 400.0 mg/kg/injection, schedule: Q01DX001 (ip), vehicle: carboxymethylcellulose (CMC).
The mark [15] stands for this setting: dose: 100.0 mg/kg/injection, schedule: Q01DX009 (ip), vehicle: saline with Tween-80.

For the compound `Cc1nc2c(nc1C)C(=O)C=CC2=O`, the T/C is 100 % of control (dose: 5.0 mg/kg/injection, schedule: Q01DX001 (ip), vehicle: carboxymethylcellulose (CMC)); 96 % of control (dose: 10.0 mg/kg/injection, schedule: Q01DX001 (ip), vehicle: carboxymethylcellulose (CMC)); 94 % of control (dose: 20.0 mg/kg/injection, schedule: Q01DX001 (ip), vehicle: carboxymethylcellulose (CMC)).

For the compound `O=C(Nc1ccc(Cl)cc1)c1cc([N+](=O)[O-])ccc1O`, the T/C (dose: 30.5 mg/kg/injection, schedule: Q02DX010 (ip), vehicle: carboxymethylcellulose (CMC)) was 95 % of control; the T/C (dose: 61.0 mg/kg/injection, schedule: Q02DX010 (ip), vehicle: carboxymethylcellulose (CMC)) was 101 % of control; the T/C (dose: 122.0 mg/kg/injection, schedule: Q02DX010 (ip), vehicle: carboxymethylcellulose (CMC)) is 99 % of control; the T/C (dose: 244.0 mg/kg/injection, schedule: Q02DX010 (ip), vehicle: carboxymethylcellulose (CMC)) is 94 % of control.

Take `CC(C)C(Br)C(=O)NCC(=O)O` (centres undefined): the T/C under setting [1] is 102 % of control, the T/C under setting [2] was 98 % of control and the T/C under setting [3] is 98 % of control.

Consider `NCc1ccccc1F`, for which the T/C reads like this: under setting [4], 100 % of control; under setting [5], 107 % of control; under setting [6], 90 % of control; under setting [7], 100 % of control; under setting [8], 102 % of control.

With `c1ccc2c(OCC3=NCCN3)cccc2c1`, the T/C is 104 % of control (dose: 20.0 mg/kg/injection, schedule: Q01DX001 (ip), vehicle: Klucel (hydroxypropylcellulose) (HPC)); 105 % of control (dose: 25.0 mg/kg/injection, schedule: Q01DX009 (ip), vehicle: Klucel (hydroxypropylcellulose) (HPC)); 104 % of control (dose: 40.0 mg/kg/injection, schedule: Q01DX001 (ip), vehicle: Klucel (hydroxypropylcellulose) (HPC)); 106 % of control (dose: 50.0 mg/kg/injection, schedule: Q01DX009 (ip), vehicle: Klucel (hydroxypropylcellulose) (HPC)); 102 % of control (dose: 80.0 mg/kg/injection, schedule: Q01DX001 (ip), vehicle: Klucel (hydroxypropylcellulose) (HPC)); 109 % of control (dose: 100.0 mg/kg/injection, schedule: Q01DX001 (ip), vehicle: Klucel (hydroxypropylcellulose) (HPC)).

Regarding `NC(=O)N(Cc1ccccc1)N=O`, the T/C reads like this: (dose: 6.25 mg/kg/injection, schedule: Q01DX Z (ip), vehicle: carboxymethylcellulose (CMC)) 101 % of control; (dose: 12.5 mg/kg/injection, schedule: Q01DX Z (ip), vehicle: carboxymethylcellulose (CMC)) 116 % of control; (dose: 25.0 mg/kg/injection, schedule: Q01DX Z (ip), vehicle: carboxymethylcellulose (CMC)) 104 % of control; (dose: 50.0 mg/kg/injection, schedule: Q01DX Z (ip), vehicle: carboxymethylcellulose (CMC)) 110 % of control; (dose: 100.0 mg/kg/injection, schedule: Q01DX Z (ip), vehicle: carboxymethylcellulose (CMC)) 116 % of control.

In the case of `Cc1ccc(S(=O)(=O)c2ccccc2C)s1`, the T/C under setting [9] is 97 % of control; the T/C (dose: 100.0 mg/kg/injection, schedule: Q04DX003 (ip), vehicle: acetone) is 94 % of control; the T/C under setting [10] was 98 % of control; the T/C (dose: 200.0 mg/kg/injection, schedule: Q04DX003 (ip), vehicle: acetone) was 98 % of control; the T/C under setting [11] was 93 % of control; the T/C (dose: 400.0 mg/kg/injection, schedule: Q04DX003 (ip), vehicle: acetone) was 94 % of control.

Take `Cc1cc(O)c(CN(C)C)cc1O`: the T/C reads like this: (dose: 75.0 mg/kg/injection, schedule: Q01DX001 (ip), vehicle: saline) 103 % of control; (dose: 150.0 mg/kg/injection, schedule: Q01DX001 (ip), vehicle: saline) 104 % of control.

As to `COC(=O)CCC(=O)N1CCOCC1`, the T/C under setting [1] is 88 % of control, the T/C under setting [2] is 90 % of control and the T/C under setting [3] was 88 % of control.

As to `O=C1c2c(O)cccc2C(Br)c2cccc(O)c21`, the T/C by setting is: (dose: 100.0 mg/kg/injection, schedule: Q01DX001 (ip), vehicle: water) 108 % of control; (dose: 100.0 mg/kg/injection, schedule: Q01DX009 (ip), vehicle: water) 103 % of control; (dose: 200.0 mg/kg/injection, schedule: Q01DX001 (ip), vehicle: water) 108 % of control; (dose: 200.0 mg/kg/injection, schedule: Q01DX009 (ip), vehicle: water) 100 % of control; (dose: 300.0 mg/kg/injection, schedule: Q01DX001 (ip), vehicle: water) 104 % of control; (dose: 400.0 mg/kg/injection, schedule: Q01DX009 (ip), vehicle: water) 90 % of control.

For the compound `CC(=O)Nc1cc(C(=O)Nc2ccc(C3=NCCN3)cc2)ccc1C(=O)Nc1ccc(C2=NCCN2)cc1`, the T/C (dose: 7.5 mg/kg/injection, schedule: Q01DX Z (oral), vehicle: saline) was 103 % of control; the T/C (dose: 15.0 mg/kg/injection, schedule: Q01DX Z (ip), vehicle: saline) was 271 % of control; the T/C (dose: 15.0 mg/kg/injection, schedule: Q01DX Z (oral), vehicle: saline) was 105 % of control; the T/C (dose: 30.0 mg/kg/injection, schedule: Q01DX Z (oral), vehicle: saline) was 104 % of control; the T/C (dose: 60.0 mg/kg/injection, schedule: Q01DX Z (oral), vehicle: saline) is 105 % of control; the T/C (dose: 62.5 mg/kg/injection, schedule: Q## X009 (oral), vehicle: saline) was 97 % of control. For the same compound, the T/C reads like this: (dose: 75.0 mg/kg/injection, schedule: Q01DX Z (oral), vehicle: saline) 90 % of control; (dose: 125.0 mg/kg/injection, schedule: Q## X009 (oral), vehicle: saline) 97 % of control; (dose: 150.0 mg/kg/injection, schedule: Q01DX Z (oral), vehicle: saline) 86 % of control; (dose: 500.0 mg/kg/injection, schedule: Q## X009 (oral), vehicle: saline) 101 % of control.

As to `CSc1cc2c(cc1N)Cc1ccccc1-2`, the T/C is 98 % of control under setting [12], 104 % of control under setting [13] and 115 % of control under setting [14].

As for `OC(CC1(O)C(F)(F)C(F)(F)C1(F)F)c1ccccc1` (centres undefined), the T/C reads like this: under setting [15], 97 % of control; (dose: 400.0 mg/kg/injection, schedule: Q01DX009 (ip), vehicle: saline with Tween-80) 100 % of control.

Take `CCCCCCCCCCCCCCCCCC(=O)OCC(O)COC(C)=O` (centres undefined): the T/C runs as follows: (dose: 12.5 mg/kg/injection, schedule: Q01DX009 (ip), vehicle: saline with Tween-80) 98 % of control; (dose: 25.0 mg/kg/injection, schedule: Q01DX009 (ip), vehicle: saline with Tween-80) 95 % of control; (dose: 50.0 mg/kg/injection, schedule: Q01DX009 (ip), vehicle: saline with Tween-80) 95 % of control; under setting [15], 91 % of control; (dose: 200.0 mg/kg/injection, schedule: Q01DX009 (ip), vehicle: saline with Tween-80) 91 % of control.

Take `CSc1nc(N)c(N=Nc2ccc(S(=O)(=O)Nc3nccc(C)n3)cc2)c(=O)[nH]1`: the T/C is 86 % of control under setting [12], 97 % of control under setting [13] and 97 % of control under setting [14].

For `O=C(O)c1ccc(C(=O)c2ccccc2C(=O)O)cc1`, the T/C by setting is: under setting [4], 105 % of control; under setting [5], 102 % of control; under setting [6], 106 % of control; under setting [7], 112 % of control; (dose: 400.0 mg/kg/injection, schedule: Q01DX009 (ip), vehicle: saline) 105 % of control; under setting [8], 101 % of control.

Consider `O=C1C2(c3ccccc3)CCC1(c1ccccc1)C(c1ccccc1)=C2c1ccccc1`, for which the T/C (dose: 100.0 mg/kg/injection, schedule: Q01DX001 (ip), vehicle: saline with Tween-80) was 93 % of control.

On to `COC(=O)CNC(=O)c1cccc([N+](=O)[O-])c1`, for which the T/C under setting [9] was 96 % of control, the T/C under setting [10] was 94 % of control and the T/C under setting [11] is 97 % of control.

As for `CCCCC(=O)c1ccc(OC)c(C)c1`, the T/C under setting [12] was 101 % of control, the T/C under setting [13] was 97 % of control and the T/C under setting [14] was 103 % of control.
